# Experimental data from ChEMBL document CHEMBL1201862, “PubChem BioAssay data set” (2004).
# Active and inactive are the calls of the source.
# Tests used:
# [1] = NIH3T3 cell viability loss – ATP luminescence, mouse fibroblasts, counter-screen, dose response (AID 2010); format: functional, cell-based;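 also: cells exposed to compound for about 90 hours before reading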
# [2] = Trypanosoma cruzi growth suppression in host cells – NIH3T3 host cells, beta-gal luminescence, confirmation (AID 2044); format: functional, cell-based;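 also: intracellular parasites grown in NIH/3T3 mouse fibroblasts as host cells; luminescent beta-galactosidase reporter signal from transgenic T. cruzi replicating inside host cells; inhibitors lower the luminescence signal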
# H9c2 = experiment: cells; format: functional, cell-based; conditions: Rattus norvegicus, H9c2, Myocardium;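 also: confirmatory concentration-response retest of ultra-high-throughput screening hits for modulation of myocardial damage; cell death induced by hydrogen peroxide oxidative stress; compound pretreatment for 60 min then peroxide exposure for 2 h; potency is for protecting the cells against peroxide damage rather than for killing them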
# Cytochrome P450 1A2 = biological target: T1, Cytochrome P450 1A2 (Homo sapiens, UniProt P05177);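 also: PubChem cytochrome P450 panel assay, CYP1A2 panel member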
# T1 sequence (P05177 whole entry): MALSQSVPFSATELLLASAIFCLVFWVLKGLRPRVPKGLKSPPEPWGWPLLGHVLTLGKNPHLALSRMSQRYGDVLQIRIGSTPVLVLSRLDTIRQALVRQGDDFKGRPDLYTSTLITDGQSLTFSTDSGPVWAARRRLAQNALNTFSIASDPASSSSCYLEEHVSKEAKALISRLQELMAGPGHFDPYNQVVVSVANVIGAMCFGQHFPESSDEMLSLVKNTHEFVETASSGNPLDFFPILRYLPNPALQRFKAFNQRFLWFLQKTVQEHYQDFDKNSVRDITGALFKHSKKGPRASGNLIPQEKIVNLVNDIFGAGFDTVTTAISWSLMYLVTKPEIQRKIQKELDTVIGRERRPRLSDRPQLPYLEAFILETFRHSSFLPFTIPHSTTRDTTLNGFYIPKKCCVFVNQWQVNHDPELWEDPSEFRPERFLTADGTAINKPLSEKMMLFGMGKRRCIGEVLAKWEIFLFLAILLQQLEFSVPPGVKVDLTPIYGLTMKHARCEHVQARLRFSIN
# Cytochrome P450 2C19 = Cytochrome P450 2C19 (Homo sapiens, UniProt P33261); experiment: Cytochrome panel assay with activity outcomes. Panel member name: p450-cyp2c19 Compounds with AC50 equal or less than 10 uM are considered active; format: functional
# Cytochrome P450 2C9 = Cytochrome P450 2C9 (Homo sapiens, UniProt P11712)
# Cytochrome P450 2C9, sequence (P11712 whole entry): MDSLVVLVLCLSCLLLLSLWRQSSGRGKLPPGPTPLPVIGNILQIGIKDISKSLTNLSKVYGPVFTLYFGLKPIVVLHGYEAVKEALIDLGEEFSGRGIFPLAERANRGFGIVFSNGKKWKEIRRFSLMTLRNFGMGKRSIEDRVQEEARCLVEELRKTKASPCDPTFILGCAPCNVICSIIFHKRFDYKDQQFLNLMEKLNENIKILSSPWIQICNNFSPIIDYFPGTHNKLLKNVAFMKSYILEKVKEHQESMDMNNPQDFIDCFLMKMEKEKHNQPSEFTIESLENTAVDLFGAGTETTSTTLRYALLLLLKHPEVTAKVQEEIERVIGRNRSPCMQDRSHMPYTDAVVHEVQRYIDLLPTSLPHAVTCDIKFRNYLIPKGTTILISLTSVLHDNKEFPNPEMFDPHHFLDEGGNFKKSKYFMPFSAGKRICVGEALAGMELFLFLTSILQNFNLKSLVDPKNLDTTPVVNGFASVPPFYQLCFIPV
# Cytochrome P450 2C19, sequence (P33261 whole entry): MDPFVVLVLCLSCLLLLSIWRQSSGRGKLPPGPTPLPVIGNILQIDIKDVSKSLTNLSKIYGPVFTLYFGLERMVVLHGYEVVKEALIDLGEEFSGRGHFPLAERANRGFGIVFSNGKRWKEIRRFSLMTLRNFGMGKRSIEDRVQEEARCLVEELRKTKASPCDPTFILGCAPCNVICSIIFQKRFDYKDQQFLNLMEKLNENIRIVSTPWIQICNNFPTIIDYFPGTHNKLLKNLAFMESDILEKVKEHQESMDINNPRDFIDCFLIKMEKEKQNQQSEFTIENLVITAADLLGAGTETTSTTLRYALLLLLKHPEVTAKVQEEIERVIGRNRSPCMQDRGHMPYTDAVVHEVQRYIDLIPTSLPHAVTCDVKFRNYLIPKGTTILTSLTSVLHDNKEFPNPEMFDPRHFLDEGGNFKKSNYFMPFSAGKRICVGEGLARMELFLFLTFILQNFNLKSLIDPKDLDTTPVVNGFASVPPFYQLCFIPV
smiles,measurement,setting,value
CCN(C(=O)c1cc2c(O)nc3ccc(C)cc3c2s1)c1ccccc1C,EC50,[1],> 60 µM (not active)
same,EC50,[2],857 nM (active)
COc1ccc(-c2cc(C3CCN(Cc4ccc([N+](=O)[O-])cc4)CC3)[nH]n2)cc1,EC50,[1],> 60 µM (not active)
same,EC50,[2],1100 nM (active)
COc1ccc(-c2csc(NC(=O)CCCc3nc(O)c4ccccc4n3)n2)cc1OC,IC50,H9c2,> 79 µM (inactive)
COC(=O)[C@@]1(Cc2ccc(F)cc2)[C@H]2c3cc(C(=O)N4CCCC4)n(CCc4ccc(O)c(O)c4)c3C[C@H]2CN1C(=O)c1ccccc1,AC50,Cytochrome P450 1A2,20 µM (inconclusive)
CCCCOc1ccc(-c2nnn(CC(=O)c3c[nH]c4ccccc34)n2)cc1,AC50,Cytochrome P450 2C19; read-out: AC50,25.1 µM (inconclusive)
CCCC(=O)Nc1cccc(Oc2nc(C)cc(C)c2C#N)c1,AC50,Cytochrome P450 2C9,10 µM (inconclusive)
CC(=O)Nc1ccc(-c2cc(-c3ccc(NC(C)=O)cc3)nc(-c3ccccc3)n2)cc1,AC50,Cytochrome P450 2C19; read-out: AC50,1.78 µM (inconclusive)
CCOC(=O)c1cnc2ccc(OCC)cc2c1N1CCN(c2ccccc2OC)CC1,EC50,[1],> 60 µM (not active)
same,EC50,[2],1190 nM (active)
O=C(c1c[nH]c(=O)n(-c2ccccc2)c1=O)N1CCc2ccccc21,AC50,Cytochrome P450 2C19; read-out: AC50,6.31 µM (inconclusive)
same,AC50,Cytochrome P450 1A2,0.0794 µM (inconclusive)
NS(=O)(=O)c1ccc(NC(=O)Nc2cccc3ccccc23)cc1,AC50,Cytochrome P450 1A2,1 µM (inconclusive)
O=c1oc2c(CN3CCOCC3)c(O)ccc2c2ccccc12,AC50,Cytochrome P450 2C9,20 µM (inconclusive)
COc1ccc(CNn2c(-c3cccs3)nc3ccccc3c2=O)cc1OC,IC50,H9c2,8.92 µM (active)
COC(=O)c1nnn(Cc2ccccc2)c1N,AC50,Cytochrome P450 1A2,0.126 µM (inconclusive)
O=C(C1=C[C@H](C2CC2)C[C@H](OCc2ccc(CO)cc2)O1)N1CCN(Cc2ccccc2)CC1,EC50,[1],> 60 µM (not active)
same,EC50,[2],541 nM (active)
N#Cc1cc2ccccc2nc1SCC(=O)Nc1ccc(S(=O)(=O)N2CCCC2)cc1,EC50,[1],9.37 µM (active)
same,EC50,[2],2830 nM (active)
O=C(Nc1ccccc1C(=O)O)c1ccc2ccccc2n1,AC50,Cytochrome P450 1A2,5.01 µM (inconclusive)
O=C1Nc2ccccc2Oc2cc([N+](=O)[O-])ccc21,EC50,[1],9.78 µM (active)
same,EC50,[2],1460 nM (active)
CCNc1ncc2nc(-c3ccc(F)cc3)c(=O)n(Cc3ccc(F)cc3)c2n1,AC50,Cytochrome P450 1A2,20 µM (inconclusive)
CC(=O)O/C(=C1/C[C@H]2[C@@H]3CC=C4C[C@@H](OC(C)=O)CC[C@]4(C)[C@@H]3CC[C@]2(C)C1=O)C(F)(F)F,AC50,Cytochrome P450 1A2,5.01 µM (inconclusive)
same,AC50,Cytochrome P450 2C9,3.16 µM (inconclusive)
COc1cc(CNC(C)(C)CO)ccc1OCC(=O)Nc1ccc(Br)cc1,AC50,Cytochrome P450 2C9,39.8 µM (inconclusive)
Cc1ccc(-c2nnc(Nc3ccc(CC(N)=O)cc3)c3ccccc23)cc1,EC50,[1],> 60 µM (not active)
same,EC50,[2],208 nM (active)
O=C(c1ccc(-c2ccccc2)cc1)C1CCCN(Cc2ccncc2)C1 (stereo not given),EC50,[1],> 60 µM (not active)
same,EC50,[2],1470 nM (active)
COc1ccc(-c2cc(-c3nnc(COC(=O)C4CC4C)o3)c3ccccc3n2)cc1OC (stereo not given),IC50,H9c2,8.29 µM (active)
CCOC(=O)Cc1csc(SCc2cc(=O)oc3cc(O)ccc23)n1,IC50,H9c2,> 79 µM (inactive)
CN(C)CCCNC(=O)c1ccc(Cl)c(S(=O)(=O)N(C)c2ccccc2)c1,EC50,[1],> 60 µM (not active)
same,EC50,[2],524 nM (active)
COC(=O)c1c(-c2ccccc2)csc1NC(=O)CSc1ncnc2sc(C)c(C)c12,AC50,Cytochrome P450 2C19; read-out: AC50,1 µM (inconclusive)
CN(C)CCCN/C=C1/C(=O)N(Cc2ccc3c(c2)OCO3)C(=O)c2ccccc21,EC50,[1],10.1 µM (active)
same,EC50,[2],< 100 nM (active)
OC(COc1ccc(OCC(O)CN2CCN(Cc3ccccc3)CC2)cc1)CN1CCN(Cc2ccccc2)CC1 (stereo not given),EC50,[1],> 60 µM (not active)
same,EC50,[2],789 nM (active)
CCOC(=O)CSc1nc(O)c2c(C)c(C)sc2n1,IC50,H9c2,10.2 µM (active)
CCN1CCN(Cc2cccc(Oc3ccccc3)c2)CC1,EC50,[1],> 30 µM (not active)
same,EC50,[2],1440 nM (active)
CC(=O)c1ccccc1OCCCN1CCCCC1,IC50,H9c2,> 79 µM (inactive)
COc1ccc(-n2nc(C(=O)NCC(=O)Nc3cc(OC)c(OC)c(OC)c3)c3ccccc3c2=O)cc1Cl,IC50,H9c2,> 79 µM (inactive)
O=C(CN1C(=O)COc2ccccc21)N(Cc1cccnc1)Cc1ccccc1F,EC50,[1],> 60 µM (not active)
same,EC50,[2],260 nM (active)
CC(=O)NCCNc1cc(-c2ccccc2C(F)(F)F)ncn1,AC50,Cytochrome P450 1A2,25.1 µM (inconclusive)
Cn1cc(-c2nc3cncnc3n(CCN)c2=O)c2ccccc21,AC50,Cytochrome P450 2C19; read-out: AC50,31.6 µM (inconclusive)
same,AC50,Cytochrome P450 2C9,15.8 µM (inconclusive)
COC(=O)c1ccc(C#CC(NP(=O)(c2ccccc2)c2ccccc2)c2ccccc2)cc1 (stereo not given),AC50,Cytochrome P450 2C19; read-out: AC50,20 µM (inconclusive)
same,AC50,Cytochrome P450 1A2,20 µM (inconclusive)
COc1ccccc1NC(=O)CSc1nc2ccccc2cc1Cc1ccccc1,AC50,Cytochrome P450 1A2,3.55 µM (inconclusive)
same,AC50,Cytochrome P450 2C9,0.0631 µM (inconclusive)
COc1cccc(C(CC(=O)Nc2cccc3ccccc23)NC(=O)c2ccccc2)c1 (stereo not given),AC50,Cytochrome P450 2C19; read-out: AC50,0.631 µM (inconclusive)
COC(=O)Cn1nc(-c2ccccc2)n(-c2ccccc2)c1=S,AC50,Cytochrome P450 2C19; read-out: AC50,20 µM (inconclusive)
CCc1ccc(C(=O)COC(=O)C(Cc2ccccc2)NC(=O)C2CCC(C)CC2)cc1 (stereo not given),AC50,Cytochrome P450 2C19; read-out: AC50,0.0708 µM (inconclusive)
COc1ccccc1NC(=O)c1ccc(NC(=O)Cc2nnc(O)c3ccccc23)cc1,IC50,H9c2,> 79 µM (inactive)
COC(=O)c1sccc1NC(=O)CN(C)NS(=O)(=O)c1ccc(F)cc1,AC50,Cytochrome P450 2C9,28.2 µM (inconclusive)
CC(C)CN(C(=O)c1ccc([N+](=O)[O-])s1)c1c(N)n(Cc2ccccc2)c(=O)[nH]c1=O,EC50,[1],> 60 µM (not active)
same,EC50,[2],783 nM (active)
CCN(CC)CCN(C(=O)c1ccc2c(c1)OCCO2)c1nc2ccc(C)cc2s1,EC50,[1],> 60 µM (not active)
same,EC50,[2],457 nM (active)
CCCCCNc1nc(-c2ccccc2)nc(-n2ccnc2)n1,EC50,[1],> 60 µM (inconclusive)
same,EC50,[2],1550 nM (active)
CC1=C2[C@@H]3OC(=O)[C@@H](C)[C@@H]3CC[C@]2(C)C=CC1=O,AC50,Cytochrome P450 1A2,10 µM (inconclusive)
N=c1sccn1CC(=O)Nc1cccc(Oc2ccccc2)c1,AC50,Cytochrome P450 1A2,6.31 µM (inconclusive)
same,AC50,Cytochrome P450 2C9,20 µM (inconclusive)
O=C(NCc1cccnc1)C1COc2ccccc2O1 (stereo not given),AC50,Cytochrome P450 2C9,20 µM (inconclusive)
CC(=O)Nc1cccc(/C(C)=N/NC(=O)c2cccs2)c1,IC50,H9c2,> 79 µM (inactive)
O=C(CNC(=O)c1cccc(F)c1)N/N=C/c1cc(Br)ccc1OC(=O)/C=C/c1ccco1,IC50,H9c2,> 79 µM (inactive)
COc1cc(/C=N\NC(=O)c2cccnc2)ccc1OC(=O)c1ccccc1Cl,IC50,H9c2,> 79 µM (inactive)
Cc1[nH]n(-c2ccc(S(=O)(=O)O)cc2)c(=O)c1/N=N\c1ccccc1,AC50,Cytochrome P450 2C19,inconclusive
O=[N+]([O-])c1ccccc1/C=N/N1CCN(c2ccncc2S(=O)(=O)N2CCCCC2)CC1,EC50,[1],> 60 µM (not active)
same,EC50,[2],550 nM (active)
COc1ccc(CNc2ncnc3ccc(-c4ccccc4C#N)cc23)c(OC)c1,AC50,Cytochrome P450 2C9,0.794 µM (inconclusive)
CN(C)CCC=C1c2ccccc2CCc2ccccc21 [AMITRIPTYLINE],AC50,Cytochrome P450 1A2,15.8 µM (inconclusive)
O=C(Cn1ccnc1[N+](=O)[O-])NCCO [ETANIDAZOLE],AC50,Cytochrome P450 2C19,inconclusive
CS(=O)(=O)Nc1ccc([N+](=O)[O-])cc1Oc1ccccc1 [NIMESULIDE],AC50,Cytochrome P450 1A2,12.6 µM (inconclusive)
